Measured values taken from ChEMBL document CHEMBL3137667, “[Drug-induced liver injury; fourteenth updated edition of the bibliographic database of liver injuries and related drugs]” (Gastroenterol Clin Biol, 2004).

Experiments:
[1] = Presence of at least one case with successful reintroduction. [column 'REINT' in source]; conditions: human
[2] = Highest frequency of acute liver toxicity observed during clinical trials, expressed as a percentage. [column '% AIGUE' in source]; conditions: human
[3] = human
[4] = human; remark: listed apart in the source
[5] = human, serum
[6] = human; remark: listed apart in the source
[7] = Times to onset, minimal and maximal, observed in the indexed observations. [column 'DELAI' in source]; conditions: human
[8] = human, serum; remark: listed apart in the source
[9] = Proposed mechanism(s) of liver damage. [column 'MEC' in source]; conditions: human
[10] = human; remark: listed apart in the source
[11] = human; remark: listed apart in the source
[12] = Highest frequency of moderate liver toxicity observed during clinical trials, expressed as a percentage. [column '% BIOL' in source]; conditions: human
[13] = human, serum, 4383 h
[14] = human; remark: listed apart in the source
[15] = human; remark: listed apart in the source
[16] = human; remark: listed apart in the source
[17] = human; remark: listed apart in the source
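Wherever Hepatotoxicity (association with vascular disease) is given: count of indexed literature references reporting vascular liver injury in humans, e.g. peliosis hepatitis, hepatic veno-occlusive disease or Budd-Chiari syndrome.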
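Wherever Hepatotoxicity (benign tumour) is given: value is a count of indexed literature references citing a benign tumour confirmed by histopathology.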
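Wherever Hepatotoxicity (choleostasis) is given: human cholestatic liver injury, shown by histopathology or by peak ALT or AST elevation over alkaline phosphatase ratio below 2, value counts indexed literature reports.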
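Wherever Hepatotoxicity (chronic liver disease) is given: chronic liver injury confirmed by histopathology or persistently raised serum aminotransferase activity beyond 6 months, value given as the count of indexed literature references.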
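Wherever Hepatotoxicity (cirrhosis) is given: value is a count of indexed literature references reporting cirrhosis confirmed by histopathology.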
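Wherever Hepatotoxicity (cytolytic) is given: human cytolytic liver injury, shown by histopathology or by a ratio above 5 of peak ALT or AST elevation to alkaline phosphatase elevation, value counts indexed references.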
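Wherever Hepatotoxicity (granulomatous hepatitis) is given: value is a count of indexed literature references reporting granulomatous liver disease confirmed by histopathology.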
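Wherever Hepatotoxicity (malignant tumour) is given: malignant tumour confirmed by histopathology, value gives the count of indexed literature references reporting it.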
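Wherever Hepatotoxicity (severe hepatitis) is given: human clinical data: severe hepatitis, meaning potentially life-threatening liver failure or clinically observed cases, the value counts how many indexed literature references report it.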
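Wherever Hepatotoxicity (steatosis) is given: steatosis confirmed by histopathology, value is the count of indexed references.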

SMILES	Hepatotoxicity (successful reintroduction) [1]	Hepatotoxicity (acute) ([2]; Liver) [%]	Hepatotoxicity (cirrhosis) [3]	Hepatotoxicity (malignant tumour) [4]	Hepatotoxicity (acute) [5]	Hepatotoxicity (time to onset) [7]	Hepatotoxicity (moderate) [8]	Hepatotoxicity (benign tumour) [10]	Hepatotoxicity (association with vascular disease) [11]	Hepatotoxicity (moderate) ([12]; Liver) [%]	Hepatotoxicity (chronic liver disease) [13]	Hepatotoxicity (severe hepatitis) ([14]; Liver)	Hepatotoxicity (steatosis) [15]	Hepatotoxicity (acute) [2] [%]	Hepatotoxicity (cytolytic) [6]	Hepatotoxicity (mechanism) [9]	Hepatotoxicity (moderate) [12] [%]	Hepatotoxicity (severe hepatitis) [14]	Hepatotoxicity (choleostasis) [16]	Hepatotoxicity (granulomatous hepatitis) [17]	other results
CCN(CC)Cc1cc(Nc2ccnc3cc(Cl)ccc23)ccc1O.Cl	yes	6.7	1	0	18	1 week - 1 year	2	0	0	0	0	8	0								Hepatotoxicity (cytolytic) ([6]; Liver): 11; Hepatotoxicity (mechanism) ([9]; Liver): Allergic, Dose-dependant, Reactive metabolite; Hepatotoxicity (choleostasis) ([16]; Liver): 4; Hepatotoxicity (granulomatous hepatitis) ([17]; Liver): 0
CCc1nc(N)nc(N)c1-c1ccc(Cl)cc1.COc1ncnc(NS(=O)(=O)c2ccc(N)cc2)c1OC	yes		0	0	14	1 day - 3 months	11	0	0		0		0	23.5	5	Allergic	22.5	3	4	2	
CCOC(N)=O	yes		1	0	5	1 year - 2 years	0	0	3		0		0	0	5	Dose-dependant	0	4	1	0	
CCCC(=O)Nc1ccc(OCC(O)CNC(C)C)c(C(C)=O)c1 (centres undefined) [ACEBUTOLOL]	yes	0	0	0		1 day - 1 month	0	0	0	0	0	0	0		1	Allergic			1	0	
CCCSc1ccc2nc(NC(=O)OC)[nH]c2c1 [ALBENDAZOLE]	yes	5	0	0	8	1 week - 6 months	25	0	0	100	0	0	0		3	Reactive metabolite			2	0	
NCC(=O)CCC(=O)O [AMINOLEVULINIC ACID]	yes		0	0	0	3 days	7	0	0		0		0	0	0	Dose-dependant	66.7	0	0	0	
Nc1ccc(C(=O)O)c(O)c1 [AMINOSALICYLIC ACID]	yes		0	0	17	2 weeks - 2 months	6	0	0		0		0	6.4	11	Allergic	35.3	6	9	0	
O=C(O)COc1nn(Cc2ccccc2)c2ccccc12 [BENDAZAC]	yes	0	0	0	6	3 weeks - 3.5 years	0	0	0	0	0	0	0								Hepatotoxicity (cytolytic) ([6]; Liver): 3; Hepatotoxicity (mechanism) ([9]; Liver): Allergic; Hepatotoxicity (choleostasis) ([16]; Liver): 2; Hepatotoxicity (granulomatous hepatitis) ([17]; Liver): 0
CC(C)C[C@H]1C(=O)N2CCC[C@H]2[C@]2(O)O[C@](NC(=O)[C@@H]3C=C4c5cccc6[nH]c(Br)c(c56)C[C@H]4N(C)C3)(C(C)C)C(=O)N12 [BROMOCRIPTINE]	yes		0	0	2	4 days - 2 months	6	0	0		0		0	0	2	Dose-dependant	22	0	0	0	
CO[C@]12CC[C@@]3(C[C@@H]1[C@](C)(O)C(C)(C)C)[C@H]1Cc4ccc(O)c5c4[C@@]3(CCN1CC1CC1)[C@H]2O5 [BUPRENORPHINE]	yes		0	0	3	2 days - 3 months	1	0	0		0		0	0	2	Allergic, Overdose	71	2	0	0	
CN1C(=O)CCS(=O)(=O)C1c1ccc(Cl)cc1 (centres undefined) [CHLORMEZANONE]	yes		0	0	8	1 day - 4 weeks	0	0	0		0		0	0	1	Allergic, Dose-dependant	0	2	7	0	
COC(=O)[C@H](c1ccccc1Cl)N1CCc2sccc2C1 [CLOPIDOGREL]	yes	0	0	0	5	4 days - 5.5 months	2	0	0	3	0	0	0								Hepatotoxicity (cytolytic) ([6]; Liver): 4; Hepatotoxicity (mechanism) ([9]; Liver): Allergic; Hepatotoxicity (choleostasis) ([16]; Liver): 1; Hepatotoxicity (granulomatous hepatitis) ([17]; Liver): 0
Nc1nc2ccc(OC(F)(F)F)cc2s1 [RILUZOLE]	yes		0	0	5	15 days - 9 months	5	0			0		1	3.8	5	Dose-dependant	17	0	0	0	
